Data published in PubChem BioAssay AID686969 (The Scripps Research Institute Molecular Screening Center, 2013).
Calls of active or inactive are those of the source. The rule behind the calls is not given here.

Target: methionyl-tRNA synthetase (Trypanosoma brucei)
Test: T. brucei MetRS inhibitors, orthogonal readout, late-stage follow-up, orthogonal assay for T. brucei MetRS inhibitor project, biochemical, fluorescence polarization, dose response (AID 686969)

Row | IC50 | SMILES
1 | inactive | O=C1CC(SCc2nc3ccccc3[nH]2)C(=O)N1c1cccc(Cl)c1 (stereo not drawn)
2 | 2660 nM | O=C(NCc1nc2ccccc2[nH]1)C1=C[C@@H](C2CC2)C[C@@H](OCc2ccc(CO)cc2)O1
3 | inactive | CCO[C@@H]1OC(C(=O)NCc2nc3ccccc3[nH]2)=C[C@H](c2ccc(Br)cc2)[C@H]1CCCO
4 | 292 nM | O=C(Cn1cc(C(=O)C(=O)N2CCOCC2)c2ccccc21)Nc1cccc(C(F)(F)F)c1
5 | 7410 nM | O=C(NNC(=O)c1ccc(-n2cncn2)c([N+](=O)[O-])c1)c1ccc(Cl)cc1
6 | 2030 nM | O=C(NCc1nc2ccccc2[nH]1)C1=C[C@@H](c2ccc(Br)cc2)C[C@@H](OCc2ccc(CO)cc2)O1
7 | 7300 nM | CCOC(=O)N1CCC(Nc2c(Nc3ccc(F)cc3)c(=O)c2=O)CC1
8 | 2210 nM | O=C(NCc1nc2ccccc2[nH]1)C1=C[C@@H](c2ccccc2)C[C@@H](OCc2ccc(CO)cc2)O1
9 | 4590 nM | COc1ccccc1-n1c(SCC(=O)Nc2ccc(Cl)cc2)nc(O)c(Cc2ccccc2)c1=O
10 | 7550 nM | COc1ccc(OCC(O)CNC(=O)Nc2ccc(Cl)cc2)cc1 (stereo not drawn)
11 | 6220 nM | O=C(NCc1nc2ccccc2[nH]1)C1=C[C@H](c2ccc3c(c2)OCO3)C[C@H](OCCCCO)O1
12 | 5650 nM | O=C(N/C(=C\c1cccnc1)c1nc2ccccc2[nH]1)c1cccc(Br)c1
13 | 2800 nM | O=C(Cn1cnc2ccccc21)Nc1cccc([N+](=O)[O-])c1
14 | 4270 nM | Brc1cnc2nc(SCc3nc4ccccc4[nH]3)[nH]c2c1
15 | 5390 nM | CC(C)(C)[C@H]1C=C(C(=O)NCc2nc3ccccc3[nH]2)O[C@@H](OCc2ccc(CO)cc2)C1
16 | 2220 nM | CC(=O)c1c[nH]c(C(=O)NCc2cccc(C(F)(F)F)c2)c1
17 | 3910 nM | O=C(CN1CCSC1=NCc1ccccc1)c1ccc(Cl)c(Cl)c1
18 | 3520 nM | O=C(NCc1nc2ccccc2[nH]1)C1=C[C@H](c2ccc(Br)cc2)C[C@H](OCc2ccc(CO)cc2)O1
19 | 4270 nM | CCCCCCCCCC1NC(C(=O)O)Cc2c1[nH]c1ccccc21 (stereo not drawn)
20 | 1140 nM | O=C(NCc1nc2ccccc2[nH]1)C1=C[C@@H](c2ccc(Br)cc2)C[C@@H](OCCCCO)O1
21 | 9230 nM | Clc1ccc(OCCSCc2nc3ccccc3[nH]2)cc1
22 | 926 nM | COc1ccc2[nH]c3nc(SCC(=O)Nc4ccc5c(c4)OCO5)nnc3c2c1
23 | 2910 nM | O=C(Nc1ccc(F)c(Cl)c1)C1CC(=O)n2c(nc3ccccc32)N1 (stereo not drawn)
24 | 1770 nM | Oc1c(Cl)cc(Cl)cc1CNc1nc2ccccc2[nH]1
25 | inactive | Cc1[nH]c2ccc(Br)cc2c(=O)c1CN1CCCCCC1
26 | 2360 nM | CC(CC(=O)Nc1cccc(Br)c1)=NNC(=O)c1ccc(O)cc1O
27 | 1790 nM | O=C(NCc1nc2ccccc2[nH]1)C1=C[C@H](c2csc3ccccc23)C[C@H](OCCCCO)O1

Row | IC50 | SMILES
28 | 9390 nM | CCO[C@H]1OC(C(=O)NCc2nc3ccccc3[nH]2)=C[C@@H](c2ccc(Br)cc2)[C@@H]1CCCO
29 | 879 nM | CC(=O)c1ccc(N2CCN(C(=O)CCCn3c(=O)[nH]c4ccc(Br)cc4c3=O)CC2)cc1
30 | 6030 nM | O=C(CC(=O)Nc1cccc(Cl)c1)NN=Cc1ccccc1
31 | 4650 nM | O=C(NCc1nc2ccccc2[nH]1)C1=C[C@@H](c2csc3ccccc23)C[C@@H](OCCCCO)O1
32 | 8370 nM | O=C(CCC(=O)Nc1cccc([N+](=O)[O-])c1)NN=Cc1cccs1
33 | 717 nM | CN1CC(=O)N2C(c3cccc([N+](=O)[O-])c3)c3[nH]c4ccccc4c3C[C@H]2C1=O (stereo partly drawn)
34 | 75.1 nM | COc1cccc(NC(=O)CSc2nnc3c(n2)[nH]c2ccc(C)cc23)c1
35 | 5730 nM | Cc1ccc(NC(=O)CN(C)C(=O)CCSc2ccc(F)cc2)cc1
36 | 1310 nM | O=C(CC=NOCc1ccc([N+](=O)[O-])cc1)Nc1ccc(Br)cc1
37 | 566 nM | O=C1CC(N(CCc2ccccc2)C(=S)Nc2ccccc2)C(=O)N1c1ccc(Br)cc1 (stereo not drawn)
38 | 2030 nM | O=C(NCc1nc2ccccc2[nH]1)C1=C[C@@H](c2ccc3c(c2)OCO3)C[C@@H](OCCCCO)O1
39 | inactive | O=C(NCc1nc2ccccc2[nH]1)C1=C[C@H](c2ccccc2)C[C@H](OCc2ccc(CO)cc2)O1
40 | 1910 nM | CN(CC(=O)Nc1ccc(Cl)cc1)C(=O)c1ccc(-n2cncn2)c([N+](=O)[O-])c1
41 | 922 nM | CN(Cc1cc(Cl)cc(Cl)c1)[C@H]1C[C@H]2c3[nH]c4ccccc4c3CCN2C(=O)[C@H]1CO
42 | 439 nM | C[C@H](O)[C@@H]1C(=O)N2CCc3c([nH]c4ccccc34)[C@@H]2C[C@@H]1N(C)Cc1ccc2c(c1)OCO2
43 | 600 nM | COc1ccccc1NS(=O)(=O)c1cccc(NC(=O)Nc2ccccc2)c1
44 | 8120 nM | CC(C)(C)[C@@H]1C=C(C(=O)NCc2nc3ccccc3[nH]2)O[C@H](OCc2ccc(CO)cc2)C1
45 | 1490 nM | O=C(NNC(=O)c1cc(-c2ccc(Cl)c(Cl)c2)nc2ccccc12)Nc1ccccc1
46 | 2970 nM | O=C(C[C@H]1C(=O)N(Cc2ccccc2)C[C@@H]1c1ccc(Br)cc1)Nc1ccc(Br)cc1
47 | 933 nM | Clc1ccc(-c2nnc(SCc3nc4ccccc4[nH]3)o2)c(Cl)c1
48 | 2870 nM | O=C(CC=NOCc1ccc([N+](=O)[O-])cc1)Nc1ccc(Cl)cc1
49 | 1490 nM | CC(C)OCCCN1CC(=O)N2C(c3cccc([N+](=O)[O-])c3)c3[nH]c4ccccc4c3C[C@H]2C1=O (stereo partly drawn)
50 | 331 nM | O=C(NCCc1nc2ccccc2[nH]1)c1ccc(Cl)c([N+](=O)[O-])c1
51 | 3110 nM | O=C(NCc1nc2ccccc2[nH]1)C1=C[C@H](c2ccc(Br)cc2)C[C@H](OCCCCO)O1
52 | 8110 nM | O=C(NCc1nc2ccccc2[nH]1)C1=C[C@H](C2CC2)C[C@H](OCc2ccc(CO)cc2)O1
53 | 933 nM | O=C1[C@@H]2Cc3c([nH]c4ccccc34)C(c3cccc([N+](=O)[O-])c3)N2C(=O)CN1CCCO (stereo partly drawn)
